Test results as given in patent publication US20230250096A1, “SUBSTITUTED PHENYL-1H-PYRROLO[2,3-c] PYRIDINE DERIVATIVES” (Janssen Pharmaceutica NV, priority 2021, published 2023).

Assays:
MEIS1 mRNA expression = MEIS1 mRNA expression assay (Quantigene Singleplex) in MOLM14 cells; format: cell-based, human; conditions: 48 hours incubation
Procedure: 2b) MEIS1 mRNA Expression Assay
MEIS1 mRNA expression upon treatment of compound was examined by Quantigene Singleplex assay (Thermo Fisher Scientific). This technology allows for direct quantification of mRNA targets using probes hybridizing to defined target sequences of interest and the signal is detected using a Multimode plate reader Envision (PerkinElmer). The MOLM14 cell line was used for this experiment. Cells were plated in 96-well plates at 3,750 cells/well in the presence of increasing concentrations of compounds. After incubation of 48 hours with compounds, cells were lysed in lysis buffer and incubated for 45 minutes at 55° C. Cell lysates were mixed with human MEIS specific capture probe or human RPL28 (Ribosomal Protein L28) specific probe as a normalization control, as well as blocking probes. Cell lysates were then transferred to the custom assay hybridization plate (Thermo Fisher Scientific) and incubated for 18 to 22 hours at 55° C. Subsequently, plates were washed to remove unbound materials followed by sequential addition of preamplifiers, amplifiers, and label probe. Signals (═gene counts) were measured with a Multimode plate reader Envision. IC50S were calculated by dose-response modelling using appropriate software. For all non-housekeeper genes response equal counts corrected for background and relative expression. For each sample, each test gene signal (background subtracted) was divided by the normalization gene signal (RPL28: background subtracted). Fold changes were calculated by dividing the normalized values for the treated samples by the normalized values for the DMSO treated sample. Fold changes of each target gene were used for the calculation of IC50S.

[1] = target: T1, menin/MLL (terbium chelate-labeled menin, FITC-MBM1 peptide) (Homo sapiens, UniProt O00255, T541A); experiment: Menin/MLL homogenous time-resolved fluorescence (HTRF) assay; format: binding; conditions: 30 min incubation
T1 construct: Menin (a.a 1-610-6xhis tag, 2.3 mg/mL in 20 mM Hepes)
T1 sequence (O00255 with tags, fused parts or gaps T541A): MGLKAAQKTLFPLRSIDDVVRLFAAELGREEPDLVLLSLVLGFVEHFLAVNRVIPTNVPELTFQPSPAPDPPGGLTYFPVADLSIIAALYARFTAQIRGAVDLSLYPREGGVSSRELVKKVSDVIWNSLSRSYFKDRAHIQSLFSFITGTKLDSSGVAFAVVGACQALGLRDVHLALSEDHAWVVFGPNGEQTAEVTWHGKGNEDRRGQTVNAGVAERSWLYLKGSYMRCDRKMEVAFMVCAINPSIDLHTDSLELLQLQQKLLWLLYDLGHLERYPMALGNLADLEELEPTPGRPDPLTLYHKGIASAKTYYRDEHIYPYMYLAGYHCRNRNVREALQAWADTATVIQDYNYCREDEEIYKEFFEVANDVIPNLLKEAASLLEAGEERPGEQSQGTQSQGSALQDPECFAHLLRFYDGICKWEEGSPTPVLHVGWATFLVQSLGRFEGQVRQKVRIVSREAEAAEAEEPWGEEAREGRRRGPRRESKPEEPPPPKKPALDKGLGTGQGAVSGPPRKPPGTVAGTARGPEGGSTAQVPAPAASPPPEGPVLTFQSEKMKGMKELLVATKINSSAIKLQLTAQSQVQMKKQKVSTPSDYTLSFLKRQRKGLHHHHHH
Procedure: 1) Menin/MLL Homogenous Time-Resolved Fluorescence (HTRF) Assay
To an untreated, white 384-well microtiter plate was added 40 nL 200× test compound in DMSO and 4 μL 2× terbium chelate-labeled menin (vide infra for preparation) in assay buffer (40 mM Tris HCl, pH 7.5, 50 mM NaCl. 1 mM DTT (dithiothreitol) and 0.05% Pluronic F-127). After incubation of test compound and terbium chelate-labeled menin for 30 min at ambient temperature, 4 μL 2×FITC-MBM1 peptide (FITC-β-alanine-[…]-NH2) (“FITC” means fluorescein isothiocyanate) in assay buffer was added, the microtiter plate centrifuged at 1000 rpm for 1 min and the assay mixtures incubated for 15 min at ambient temperature. The relative amount of menin FITC-MBM1 complex present in an assay mixture is determined by measuring the homogenous time-resolved fluorescence (HTRF) of the terbium/FITC donor/acceptor fluorphore pair using an EnVision microplate reader (ex. 337 nm/terbium em. 490 nm/FITC em. 520 nm) at ambient temperature. The degree of fluorescence resonance energy transfer (the HTRF value) is expressed as the ratio of the fluorescence emission intensities of the FITC and terbium fluorophores (F^em520 nm/F^em490 nm). The final concentrations of reagents in the binding assay are […] terbium chelate-labeled menin, 75 nM FITC-MBM1 peptide and 0.5% DMSO in assay buffer. Dose-response titrations of test compounds are conducted using an 11 point, four-fold serial dilution scheme, starting typically at 10 μM.
Compound potencies were determined by first calculating % inhibition at each compound concentration according to equation 1:
% inhibition=((HC−LC)−(HTRF^compound−LC))/(HC−LC))*100 (Eqn 1)
Where LC and HC are the HTRF values of the assay in the presence or absence of a saturating concentration of a compound that competes with FITC-MBM1 for binding to menin, and HTRF^compound is the measured HTRF value in the presence of the test compound. HC and LC HTRF values represent an average of at least 10 replicates per plate.
% inhibition=Bottom+(Top−Bottom)/(1+10^((log/C50−log[cmpd])*h)) (Eqn 2)
Where Bottom and Top are the lower and upper asymptotes of the dose-response curve, respectively, IC50 is the concentration of compound that yields 50% inhibition of signal and h is the Hill coefficient.
Preparation of Terbium cryptate labeling of Menin: Menin (a.a 1-610-6xhis tag, 2.3 mg/mL in 20 mM Hepes (2-[4-(2-Hydroxyethyl)-1-piperazinyl]ethane sulfonic acid), 80 mM NaCl, 5 mM DTT (Dithiothreitol), pH 7.5) was labeled with terbium cryptate as follows. 200 μg of Menin was buffer exchanged into 1×Hepes buffer. 6.67 μM Menin was incubated with 8-fold molar excess NHS (N-hydroxysuccinimide)-terbium cryptate for 40 minutes at room temperature. Half of the labeled protein was purified away from free label by running the reaction over a NAP5 column with elution buffer (0.1M Hepes, pH 7+0.1% BSA (bovine serum albumin)). The other half was eluted with 0.1 M phosphate buffered saline (PBS), pH7. 400 μl of eluent was collected for each, aliquoted and frozen at −80° C. The final concentration of terbium-labeled Menin protein was 115 μg/mL in Hepes buffer and 85 μg/mL in PBS buffer, respectively.

| SMILES | IC50 (MEIS1 mRNA expression; Homo sapiens, MOLM-14, 48 h) [nM] | IC50 [1] [nM] | IC50 (MEIS1 mRNA expression) [nM] |
| --- | --- | --- | --- |
| CC(=O)N1C[C@@H]2CN([C@H]3C[C@@H](CN4CC[C@H](Cc5cn(-c6ccc(F)cc6C(=O)N(C)C(C)C)c6cncc(C)c56)C4)C3)C[C@H]2C1 (single isomer, unassigned) [Compound 31] | ~470 | 0.052 |  |
| CC(=O)N1CCN([C@H]2C[C@@H]([C@H](C(C)C)N3CC(Cc4cn(-c5ccc(F)cc5C(=O)N(C)C(C)C)c5cncc(C)c45)C3)C2)CC1 (single isomer, unassigned) [Compound 32b] | > 1000 | 0.472 |  |
| Cc1cncc2c1c(CC1CN([C@@H](C(C)C)[C@H]3C[C@@H](N4CCN(S(C)(=O)=O)CC4)C3)C1)cn2-c1ccc(F)cc1C(=O)N(C)C(C)C (single isomer, unassigned) [Compound 34a] | 16 | 0.019 |  |
| Cc1cncc2c1c(CC1CN([C@@H](C(C)C)[C@H]3C[C@H](N4CCN(S(C)(=O)=O)CC4)C3)C1)cn2-c1ccc(F)cc1C(=O)N(C)C(C)C (single isomer, unassigned) [Compound 34b] | 25 | 0.092 |  |
| CC(=O)N1C[C@@H]2CN([C@H]3C[C@H]([C@@H](C(C)C)N4CC(Cc5cn(-c6ccc(F)cc6C(=O)N(C)C(C)C)c6cncc(Cl)c56)C4)C3)C[C@H]2C1 (single isomer, unassigned) [Compound 39b] | 35 | 0.052 |  |
| CC(=O)N1C[C@@H]2CN([C@H]3C[C@@H](C(C(C)C)N4CC(Cc5cn(-c6ccc(F)cc6C(=O)N(C)C(C)C)c6cncc(Cl)c56)C4)C3)C[C@H]2C1 (single isomer, unassigned) [Compound 40a] | ~540 | 0.841 |  |
| CC(=O)N1C[C@@H]2CN([C@H]3C[C@H](C(C(C)C)N4CC(Cc5cn(-c6ccc(F)cc6C(=O)N(C)C(C)C)c6cncc(Cl)c56)C4)C3)C[C@H]2C1 (single isomer, unassigned) [Compound 40b] | ~680 | 0.182 |  |
| CC(=O)N[C@H]1CC[C@H](CN2CCC(Cc3cn(-c4ccc(F)cc4C(=O)N(C)C(C)C)c4cncc(C)c34)C2)CC1 (single isomer, unassigned) [Compound 72] | 182 | 0.173 |  |
| CC(=O)N[C@H]1CC[C@H](CN2CC[C@H](Cc3cn(-c4ccc(F)cc4C(=O)N(C)C(C)C)c4cncc(C)c34)C2)CC1 (single isomer, unassigned) [Compound 73] | 101 | 0.057 |  |
| Cc1cncc2c1c(CC1CCN(CC3CCN(C(=O)CCO)CC3)C1)cn2-c1ccc(F)cc1C(=O)N(C)C(C)C (single isomer, unassigned) [Compound 82] | 11 | ~0.035 |  |
| CC(=O)N1CCC[C@H](CN2CC(Cc3cn(-c4ccc(F)cc4C(=O)N(C)C(C)C)c4cncc(C)c34)C2)C1 (single isomer, unassigned) [Compound 90a] | ~127 | 0.391 |  |
| CC(=O)N1CCC[C@@H](CN2CC(Cc3cn(-c4ccc(F)cc4C(=O)N(C)C(C)C)c4cncc(C)c34)C2)C1 (single isomer, unassigned) [Compound 90b] | 103 | 0.263 |  |
| CC(=O)NC(C)CN1CCC(Cc2cn(-c3ccc(F)cc3C(=O)N(C)C(C)C)c3cncc(C)c23)C1 (single isomer, unassigned) [Compound 103] |  | 3.27 | ~5120 |
| Cc1cncc2c1c(CC1CCN(CC3CCN(C(=O)CC4CS(=O)(=O)C4)CC3)C1)cn2-c1ccc(F)cc1C(=O)N(C)C(C)C (single isomer, unassigned) [Compound 106] | 104 | 0.039 |  |

Second part, the compound after the results:

| IC50 (MEIS1 mRNA expression; Homo sapiens, MOLM-14, 48 h) [nM] | IC50 [1] [nM] | IC50 (MEIS1 mRNA expression) [nM] | SMILES |
| --- | --- | --- | --- |
| 92 | 0.047 |  | Cc1cncc2c1c(C[C@@H]1CCN(CC3COC3)C1)cn2-c1ccc(F)cc1C(=O)N(C)C(C)C (single isomer, unassigned) [Compound 46] |
| 55 | 0.042 |  | Cc1cncc2c1c(C[C@H]1CCN(CC3COC3)C1)cn2-c1ccc(F)cc1C(=O)N(C)C(C)C (single isomer, unassigned) [Compound 47] |
| 32 | 0.043 |  | Cc1cncc2c1c(CC1CCN(C[C@H]3CC[C@H](NS(C)(=O)=O)CC3)C1)cn2-c1ccc(F)cc1C(=O)N(C)C(C)C (single isomer, unassigned) [Compound 68] |
|  | 0.546 | 669 | CN=S(=O)(c1cc(F)ccc1-n1cc(CC2CCN(CC3CCOCC3)C2)c2c(C)cncc21)C(C)C (single isomer, unassigned) [Compound 77c] |
| ~690 | 1.22 |  | Cc1cncc2c1c(C[C@@H]1CCN(CC3CCOCC3)C1)cn2-c1ccc(F)cc1[S@](=N)(=O)C(C)C (single isomer, unassigned) [Compound 78a] |
|  | 0.552 | 361 | Cc1cncc2c1c(C[C@@H]1CCN(CC3CCOCC3)C1)cn2-c1ccc(F)cc1[S@](=N)(=O)C(C)C (single isomer, unassigned) [Compound 78b] |
| 538 | 0.875 |  | Cc1cncc2c1c(C[C@H]1CCN(CC3CCOCC3)C1)cn2-c1ccc(F)cc1[S@@](=N)(=O)C(C)C (single isomer, unassigned) [Compound 78d] |
| 27 | 0.042 |  | Cc1cncc2c1c(CC1CCN(CC3CCN(C(=O)CO)CC3)C1)cn2-c1ccc(F)cc1C(=O)N(C)C(C)C (single isomer, unassigned) [Compound 87] |
| ~792 | 0.217 |  | CC(=O)N1CC[C@@H](CN2CCC(Cc3cn(-c4ccc(F)cc4C(=O)N(C)C(C)C)c4cncc(C)c34)C2)C1 (single isomer, unassigned) [Compound 99] |
| 434 | 0.165 |  | CC(=O)N1CC[C@H](CN2CCC(Cc3cn(-c4ccc(F)cc4C(=O)N(C)C(C)C)c4cncc(C)c34)C2)C1 (single isomer, unassigned) [Compound 100] |
